Holding throughout (format): cell-based
In assay [1] the target is T1, SST2 (Homo sapiens, UniProt P30874).
T1 construct: host or cells: PathHunter CHO-K1 SST2 cells
Description: PathHunter CHO-K1 SST2 Internalization Assay. The following applies: PathHunter CHO-K1 SST2 cells, 90 min at 37 C, luminescence. The procedure, abridged:
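CHO-K1 cells expressing human SST2, 2500 cells/well, grown 48 h, then exposed 90 min at 37 C to 11-point 1:3 NDC dilutions (final top 10 uM). Beta-Glo luminescence after 60 min at room temperature; four-parameter IC50, duplicate mean, background-corrected.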

For assay [2], the target named is T2, human somatostatin receptor subtype 2 (Homo sapiens, UniProt P30874).
T2 construct: expressed in transfected cells
T2 sequence (P30874 whole entry): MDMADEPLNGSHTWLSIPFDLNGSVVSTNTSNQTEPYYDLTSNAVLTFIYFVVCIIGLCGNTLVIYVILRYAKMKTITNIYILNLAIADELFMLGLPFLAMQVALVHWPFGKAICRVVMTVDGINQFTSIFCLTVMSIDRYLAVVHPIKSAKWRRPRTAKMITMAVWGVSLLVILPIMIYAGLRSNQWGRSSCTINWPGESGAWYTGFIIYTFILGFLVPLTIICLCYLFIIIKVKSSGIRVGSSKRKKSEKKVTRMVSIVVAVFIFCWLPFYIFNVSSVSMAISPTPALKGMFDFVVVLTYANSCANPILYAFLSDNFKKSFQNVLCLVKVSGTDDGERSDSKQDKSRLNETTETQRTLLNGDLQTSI
The assay is described as follows: Functional assay for SSTR2 agonists (HTRF cAMP). The following applies: CHO-K1 cells stably expressing human SST2, NKH477-stimulated cAMP, 20 min at 37 C. The procedure, abridged:
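CHO-K1 cells stably expressing human SSTR2 treated with compound (typically 0-10,000 nM final) for 20 min at 37 °C. Lysate cAMP measured by HTRF (665/620 nm ratio), converted via standard curve; EC50 from cAMP vs concentration.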
(In TR-FRET formats the signal depends on donor and acceptor labels being close together.)

Assay [3] relates to NCI-H524 human small cell lung cancer cells. Description: H524 assay: inhibition of cell proliferation (CellTiter Glo). The settings on record: 2 h treatment, washout, additional 70 h incubation. The procedure, abridged:
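NCI-H524 cells were exposed for 2 h to NDC in an 11-point two-fold series starting at 1 uM. The drug was then washed out and cells grew a further 70 h. CellTiter Glo luminescence gave % inhibition versus untreated control, and IC50 came from a four-parameter nonlinear regression.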
In general terms: In ATP-based viability assays light output follows the ATP content of the culture.

Where two headings read alike, the source gives them in different places.

T1 sequence (P30874 whole entry): as above

One may read the EC50 as the midpoint of the concentration-response curve. Consider `CC[C@H](C)[C@@H]([C@@H](CC(=O)N1CCC[C@H]1[C@H](OC)[C@@H](C)C(=O)N[C@H](C)[C@@H](O)c1ccccc1)OC)N(C)C(=O)[C@@H](NC(=O)[C@H](C(C)C)N(C)C(=O)OCc1ccc(NC(=O)[C@H](CCCNC(N)=O)NC(=O)[C@@H](NC(=O)CCOCCC(=O)NCCNc2ncc(-c3cc(C)cc(F)c3)c(N3CCC(N)CC3)c2-c2nc3ccc(Cl)cc3[nH]2)C(C)C)c(O[C@@H]2O[C@H](C(=O)NCCS(=O)(=O)O)[C@@H](O)[C@H](O)[C@H]2O)c1)C(C)C` [Compound 208], for which the EC50 in assay [1] (read-out: Internalization EC50) is 3.1 nM; in assay [2] (read-out: hSST2 cAMP Avg EC50) it was 0.062 nM; in assay [3] it was 8.9 nM.

As to `CC[C@H](C)[C@@H]([C@@H](CC(=O)N1CCC[C@H]1[C@H](OC)[C@@H](C)C(=O)N[C@H](C)[C@@H](O)c1ccccc1)OC)N(C)C(=O)[C@@H](NC(=O)C(C(C)C)N(C)C(=O)OCc1ccc(NC(=O)[C@H](CCCNC(N)=O)NC(=O)[C@@H](NC(=O)CCOCCC(=O)NCCNc2ncc(-c3cc(C)cc(F)c3)c(N3CCC(N)CC3)c2-c2nc3ccc(Cl)cc3[nH]2)C(C)C)c(O[C@@H]2O[C@H](C(=O)N3CCCCC3)[C@@H](O)[C@H](O)[C@H]2O)c1)C(C)C` (stereo partly drawn) [Compound 228], the values for the EC50 in assay [1] (read-out: Internalization EC50), in assay [2] (read-out: hSST2 cAMP Avg EC50) and in assay [3] were 10 nM, 0.26 nM and 36 nM, respectively.

As to `CC[C@H](C)[C@@H]([C@@H](CC(=O)N1CCC[C@H]1[C@H](OC)[C@@H](C)C(=O)N[C@H](C)[C@@H](O)c1ccccc1)OC)N(C)C(=O)[C@@H](NC(=O)[C@H](C(C)C)N(C)C(=O)OCc1ccc(NC(=O)[C@H](CCCNC(N)=O)NC(=O)[C@@H](NC(=O)CCOCCOCCC(=O)NCCNc2ncc(-c3cc(C)cc(F)c3)c(N3CCC(N)CC3)c2-c2nc3ccc(Cl)cc3[nH]2)C(C)C)cc1C(=O)NCCCCCCCCCCC(=O)O)C(C)C` [Compound 75], the EC50 in assay [1] (read-out: Internalization EC50) is 2.4 nM; in assay [2] (read-out: hSST2 cAMP Avg EC50) it was 0.21 nM; in assay [3] it was 440 nM.

On to `CC[C@H](C)[C@@H]([C@@H](CC(=O)N1CCC[C@H]1[C@H](OC)[C@@H](C)C(=O)N[C@H](C)[C@@H](O)c1ccccc1)OC)N(C)C(=O)[C@@H](NC(=O)[C@H](C(C)C)N(C)C(=O)OCc1ccc(NC(=O)[C@H](C)NC(=O)[C@@H](NC(=O)C2(C(=O)NCCOCCC(=O)NCCNc3ncc(-c4cc(C)cc(F)c4)c(N4CCC(N)CC4)c3-c3nc4ccc(Cl)cc4[nH]3)CCC2)C(C)C)cc1C(=O)NCCN)C(C)C` [Compound 82], for which the EC50 in assay [1] (read-out: Internalization EC50) is 13 nM; in assay [2] (read-out: hSST2 cAMP Avg EC50) it was 0.26 nM; in assay [3], 6.6 nM.

For the compound `CC[C@H](C)[C@@H]([C@@H](CC(=O)N1CCC[C@H]1[C@H](OC)[C@@H](C)C(=O)N[C@H](C)[C@@H](O)c1ccccc1)OC)N(C)C(=O)[C@@H](NC(=O)[C@H](C(C)C)N(C)C(=O)OCc1ccc(NC(=O)[C@H](CCCNC(N)=O)NC(=O)[C@@H](NC(=O)CCOCCC(=O)NCCNc2ncc(-c3cc(C)cc(F)c3)c(N3CCC(N)CC3)c2-c2nc3ccc(Cl)cc3[nH]2)C(C)C)c(O[C@@H]2O[C@H](C(=O)NCCNC(=O)CCCCCO[PH](=O)OC3CCC(c4ccccc4)(c4ccccc4)CC3)[C@@H](O)[C@H](O)[C@H]2O)c1)C(C)C` (stereo partly drawn) [Compound 233], the EC50 in assay [1] (read-out: Internalization EC50) was found to be 18 nM; in assay [2] (read-out: hSST2 cAMP Avg EC50), 1 nM; in assay [3], 500 nM.

On to `CC[C@H](C)[C@@H]([C@@H](CC(=O)N1CCC[C@H]1[C@H](OC)[C@@H](C)C(=O)N[C@H](C)[C@@H](O)c1ccccc1)OC)N(C)C(=O)[C@@H](NC(=O)[C@H](C(C)C)N(C)C(=O)OCc1ccc(NC(=O)[C@H](CCCNC(N)=O)NC(=O)[C@@H](NC(=O)Cn2cc(CCOCCC(=O)NCCNc3ncc(-c4cc(C)cc(F)c4)c(N4CCC(N)CC4)c3-c3nc4cc(Cl)ccc4[nH]3)nn2)C(C)C)c(O[C@@H]2O[C@H](C(=O)N3CCNCC3)[C@@H](O)[C@H](O)[C@H]2O)c1)C(C)C` [Compound 238], for which the EC50 amounted to 4.7 nM in assay [1] (read-out: Internalization EC50), 0.12 nM in assay [2] (read-out: hSST2 cAMP Avg EC50) and 2.9 nM in assay [3].

Take `CC[C@H](C)[C@@H]([C@@H](CC(=O)N1CCC[C@H]1[C@H](OC)[C@@H](C)C(=O)N[C@H](C)[C@@H](O)c1ccccc1)OC)N(C)C(=O)[C@@H](NC(=O)[C@H](C(C)C)N(C)C(=O)OCc1ccc(NC(=O)[C@H](CCCNC(N)=O)NC(=O)[C@@H](NC(=O)c2ccc(NC(=O)CCOCCC(=O)NCCNc3ncc(-c4cc(C)cc(F)c4)c(N4CCC(N)CC4)c3-c3nc4ccc(Cl)cc4[nH]3)cc2O[C@@H]2OC(C(=O)O)[C@@H](O)[C@H](O)[C@H]2O)C(C)C)cc1)C(C)C` (stereo partly drawn) [Compound 182]: the values for the EC50 in assay [1] (read-out: Internalization EC50), in assay [2] (read-out: hSST2 cAMP Avg EC50) and in assay [3] were 11 nM, 0.093 nM and 2300 nM, respectively.

Regarding `CC[C@@H](C)[C@H]([C@H](CC(=O)N1CCC[C@@H]1[C@@H](OC)[C@H](C)C(=O)N[C@@H](C)[C@H](O)c1ccccc1)OC)N(C)C(=O)[C@H](NC(=O)[C@@H](C(C)C)N(C)C(=O)OCc1ccc(NC(=O)[C@@H](CCCNC(N)=O)NC(=O)[C@H](NC(=O)[C@@H](CCC(=O)O)NC(=O)CCOCCOCCNC(=O)CCc2cn(CCCC[C@H](NC(=O)CCOCCC(=O)NCCNc3ncc(-c4cc(C)cc(F)c4)c(N4CCC(N)CC4)c3-c3nc4ccc(Cl)cc4[nH]3)C(=O)NCCOCCOCCC(=O)N[C@@H](CCC(=O)O)C(=O)N[C@H](C(=O)N[C@@H](CCCNC(N)=O)C(=O)Nc3ccc(COC(=O)N(C)[C@H](C(=O)N[C@H](C(=O)N(C)[C@@H]([C@@H](C)CC)[C@@H](CC(=O)N4CCC[C@H]4[C@H](OC)[C@@H](C)C(=O)N[C@H](C)[C@@H](O)c4ccccc4)OC)C(C)C)C(C)C)cc3)C(C)C)nn2)C(C)C)cc1)C(C)C` [Compound 245], the EC50 in assay [1] (Internalization EC50 (nM)) is 440 nM; in assay [2] (hSST2 cAMP Avg EC50 (nM)) it was 11 nM; in assay [3] it was 140 nM.

With `CC[C@H](C)[C@@H]([C@@H](CC(=O)N1CCC[C@H]1[C@H](OC)[C@@H](C)C(=O)N[C@H](C)[C@@H](O)c1ccccc1)OC)N(C)C(=O)[C@@H](NC(=O)[C@H](C(C)C)N(C)C(=O)OCc1ccc(NC(=O)[C@H](CCCNC(N)=O)NC(=O)[C@@H](NC(=O)[C@@H](CS(=O)(=O)O)NC(=O)CCOCCC(=O)NCCNc2ncc(-c3cc(C)cc(F)c3)c(N3CCC(N)CC3)c2-c2nc3ccc(Cl)cc3[nH]2)C(C)C)cc1C(=O)NCCN)C(C)C` [Compound 29], the EC50 in assay [1] (read-out: Internalization EC50) was 8.5 nM; in assay [2] (read-out: hSST2 cAMP Avg EC50) it was 0.076 nM; in assay [3] it was 2.6 nM.

Take `CC[C@H](C)[C@@H]([C@@H](CC(=O)N1CCC[C@H]1[C@H](OC)[C@@H](C)C(=O)N[C@H](C)[C@@H](O)c1ccccc1)OC)N(C)C(=O)[C@@H](NC(=O)[C@H](C(C)C)N(C)C(=O)OCc1ccc(NC(=O)[C@H](CCCNC(N)=O)NC(=O)[C@@H](NC(=O)C[C@@H](N)C(=O)NCCOCCC(=O)NCCNc2ncc(-c3cc(C)cc(F)c3)c(N3CCC(N)CC3)c2-c2nc3ccc(Cl)cc3[nH]2)C(C)C)c(O[C@@H]2O[C@H](C(=O)N[C@@H](CCCCNC(=O)CCCCc3ccc(I)cc3)C(=O)O)[C@@H](O)[C@H](O)[C@H]2O)c1)C(C)C` [Compound 211]: the figures for the EC50 in assay [1] (read-out: Internalization EC50), in assay [2] (read-out: hSST2 cAMP Avg EC50) and in assay [3] were 3.2 nM, 0.19 nM and 89 nM, respectively.

Consider `CC[C@H](C)[C@@H]([C@@H](CC(=O)N1CCC[C@H]1[C@H](OC)[C@@H](C)C(=O)N[C@H](C)[C@@H](O)c1ccccc1)OC)N(C)C(=O)[C@@H](NC(=O)[C@H](C(C)C)N(C)C(=O)OCc1ccc(NC(=O)[C@H](CCCNC(N)=O)NC(=O)[C@@H](NS(=O)(=O)C[C@H](C)CC(=O)CCOCCC(=O)NCCNc2ncc(-c3cc(C)cc(F)c3)c(N3CCC(N)CC3)c2-c2nc3ccc(Cl)cc3[nH]2)C(C)C)c(O[C@@H]2C[C@H](C(=O)O)[C@@H](O)[C@H](O)[C@H]2O)c1)C(C)C` [Compound 132], for which the figures for the EC50 in assay [1] (read-out: Internalization EC50), in assay [2] (read-out: hSST2 cAMP Avg EC50) and in assay [3] were 3.2 nM, 0.26 nM and 410 nM, respectively.
